Results on nine compounds are retold here after DBAASP.

What all share (experiment): ≥ marks a high value that may be exact or a test limit, other limits are often not marked, values filed in µg/mL are converted to µM
Assay [1] deals with Pseudomonas aeruginosa ATCC 27853.
Assay [2] concerns Micrococcus luteus ATCC 10240.
The subject of assay [3] is Bacillus subtilis ATCC 6633.
The subject of assay [4] is Staphylococcus aureus ATCC 6538P.
For assay [5], the system named is Salmonella enterica subsp. enterica serovar Typhimurium ATCC 14028.
Assay [6] has as its system Klebsiella pneumoniae ATCC 10031.
In assay [7] the test system is Staphylococcus epidermidis ATCC 12228.
Assay [8] has as its system Shigella dysenteriae ATCC 9752.
Assay [9] has as its system Escherichia coli ATCC 25922.
Assay [10] deals with Aspergillus fumigatus.
The test system of assay [11] is Candida albicans.
In assay [12] the test system is Klebsiella pneumoniae.
In assay [13] the test system is Staphylococcus aureus NCTC 8325-4.
Assay [14] concerns Pseudomonas aeruginosa PAO1.
Assay [15] concerns Escherichia coli K-12.
Assay [16] relates to Escherichia coli JM109.
In assay [17] the test system is Staphylococcus aureus.
The test system of assay [18] is Escherichia coli.
Assay [19] concerns Bacillus subtilis.
For assay [20], the system named is Klebsiella pneumoniae ATCC 13883.
The subject of assay [21] is Enterococcus faecalis ATCC 29212.
Assay [22] deals with Staphylococcus aureus ATCC 25923.
In assay [23] the test system is Streptococcus pyogenes ATCC 19615.
Assay [24] deals with Proteus mirabilis CICC 22931.
The subject of assay [25] is Klebsiella aerogenes CGMCC 1.876.
Assay [26] concerns Pseudomonas aeruginosa CGMCC 1.860.
Assay [27] concerns Bacillus cereus AS1.126.
Assay [28] has as its system Escherichia coli AS1.349.
Assay [29] has as its system Staphylococcus aureus AS1.72.
The subject of assay [30] is Acinetobacter baumannii CICC 22934.
Assay [31] has as its system Enterobacter cloacae CGMCC 1.58.
In assay [32] the test system is Enterococcus faecalis CGMCC 1.595.
Assay [33] concerns Enterococcus faecium CGMCC 1.2334.
Assay [34] relates to Klebsiella pneumoniae subsp. pneumoniae CGMCC 1.176.
Assay [35] deals with Lactococcus lactis AS1.1690.

Structures are written as SMILES. Values after ≈ are worked out from the molar mass of the structure shown.

In general, MIC refers to the lowest concentration found to suppress growth. Low values mean greater potency, high ones weaker potency. For `CC(C)C[C@H](NC(=O)[C@H](Cc1c[nH]c2ccccc12)NC(=O)CNC(=O)[C@H](CC(C)C)NC(=O)[C@@H](N)Cc1ccccc1)C(=O)N[C@@H](Cc1ccccc1)C(=O)N[C@@H](CCCCN)C(=O)N[C@@H](Cc1c[nH]c2ccccc12)C(=O)N[C@@H](C)C(=O)N[C@@H](CCCCN)C(=O)N[C@@H](CCCCN)C(N)=O` [FLGWLFKWAKK], the MIC in [1] amounted to 17.6 µM (≈ 25 µg/mL); in [2], 2.18 µM (≈ 3.1 µg/mL); in assay [3], 4.42 µM (≈ 6.3 µg/mL); in assay [4], 8.78 µM (≈ 12.5 µg/mL); in [5], 35.1 µM (≈ 50 µg/mL); in assay [6], 8.78 µM (≈ 12.5 µg/mL). Moreover, the minimal inhibitory concentration (MIC) in [7] turned out to be 4.42 µM (≈ 6.3 µg/mL); in assay [8] it was 17.6 µM (≈ 25 µg/mL); in assay [9], 8.78 µM (≈ 12.5 µg/mL).

For `N[C@@H](Cc1ccccc1)C(=O)N1CCC[C@H]1C(=O)N[C@@H](Cc1c[nH]c2ccccc12)C(=O)N[C@@H](Cc1c[nH]c2ccccc12)C(=O)N[C@@H](Cc1c[nH]c2ccccc12)C(=O)N1CCC[C@H]1C(=O)N[C@@H](Cc1ccccc1)C(=O)O` [FPWWWPF], the MIC in assay [10] is no less than 469 µM; in assay [11], greater than 939 µM.

For `CC[C@H](C)[C@H](N)C(=O)N[C@@H](CCCCN)C(=O)N[C@@H](CCCCN)C(=O)N[C@H](C(=O)N[C@H](C(=O)N[C@@H](CCCCN)C(=O)N[C@@H](CCCCN)C(=O)N[C@H](C(N)=O)[C@@H](C)CC)[C@@H](C)CC)[C@@H](C)CC` [IKKIIKKI], the minimum inhibitory concentration (MIC) was greater than 500 µM in assay [12], no less than 500 µM in [13], greater than 500 µM in assay [14] and no less than 500 µM in [15].

For the compound `CC[C@H](C)[C@H](NC(=O)[C@H](C)NC(=O)[C@H](CC(C)C)NC(=O)[C@H](CS)NC(=O)[C@H](Cc1cnc[nH]1)NC(=O)[C@H](C)NC(=O)[C@H](C)NC(=O)[C@H](CS)NC(=O)[C@@H](N)CC(C)C)C(=O)N[C@@H](CC(C)C)C(=O)N[C@@H](CCCN=C(N)N)C(=O)N[C@@H](CCCN=C(N)N)C(N)=O` [LCAAHCLAILRR], the minimum inhibitory concentration (MIC) in assay [16] stood at 17.9 µM; in [4] it was 7.46 µM; in [17], 47.8 µM.

As to `CC[C@H](C)[C@H](NC(=O)[C@H](C)NC(=O)[C@H](CC(C)C)NC(=O)[C@H](CCCN=C(N)N)NC(=O)[C@H](Cc1cnc[nH]1)NC(=O)[C@H](C)NC(=O)[C@H](C)NC(=O)[C@H](CCCN=C(N)N)NC(=O)[C@@H](N)CC(C)C)C(=O)NCC(=O)N[C@@H](CCCN=C(N)N)C(=O)N[C@@H](CCCN=C(N)N)C(N)=O` [LRAAHRLAIGRR], the MIC was found to be 11.5 µM (≈ 16 µg/mL) in [16], 4.32 µM (≈ 6 µg/mL) in assay [4] and 46.1 µM (≈ 64 µg/mL) in assay [17].

For the compound `CC(C)C[C@H](N)C(=O)N[C@@H](Cc1ccc(O)cc1)C(=O)N[C@@H](CCCN=C(N)N)C(=O)N[C@@H](CCCN=C(N)N)C(=O)N[C@@H](CCCN=C(N)N)C(=O)N[C@@H](Cc1ccccc1)C(=O)N[C@H](C(=O)N[C@H](C(=O)NCC(=O)N[C@@H](CCCN=C(N)N)C(N)=O)C(C)C)C(C)C` [LYRRRFVVGR], the MIC is 200 µM (≈ 264 µg/mL) in [1]; 50 µM (≈ 66 µg/mL) in assay [18]; 200 µM (≈ 264 µg/mL) in assay [5]; no less than 50 µM in assay [19]; no less than 200 µM in assay [20]; 25 µM (≈ 33 µg/mL) in assay [21]. The values for the MIC in assay [22] and in [23] were 25 µM (≈ 33 µg/mL) and no less than 50 µM, respectively.

In the case of `CC(C)C[C@H](NC(=O)[C@H](CCCCN)NC(=O)[C@H](CCCN=C(N)N)NC(=O)[C@H](Cc1cnc[nH]1)NC(=O)[C@H](C)NC(=O)[C@H](CCCN=C(N)N)NC(=O)[C@H](Cc1cnc[nH]1)NC(=O)CNC(=O)[C@H](Cc1ccccc1)NC(=O)[C@H](CCCN=C(N)N)NC(=O)[C@H](CCCN=C(N)N)NC(=O)CNC(=O)[C@H](Cc1cnc[nH]1)NC(=O)[C@H](CCCN=C(N)N)NC(=O)CNC(=O)[C@@H](NC(=O)[C@H](CCCCN)NC(=O)[C@@H](N)CO)C(C)C)C(=O)O` [SKVGRHGRRFGHRAHRKL], the MIC in assay [24], in assay [25], in assay [26], in assay [27], in assay [28] and in assay [29] was no less than 100 µM each time. Further, the minimum inhibitory concentration (MIC) in assay [30], in assay [31], in assay [32], in [33], in assay [34] and in [35] was no less than 100 µM in each case.

Regarding `CC(C)C[C@H](NC(=O)[C@H](CCCCN)NC(=O)[C@H](CCCN=C(N)N)NC(=O)[C@H](Cc1cnc[nH]1)NC(=O)[C@H](C)NC(=O)[C@H](CCCN=C(N)N)NC(=O)[C@H](Cc1cnc[nH]1)NC(=O)CNC(=O)[C@H](Cc1ccccc1)NC(=O)[C@H](CCCN=C(N)N)NC(=O)[C@H](CCCN=C(N)N)NC(=O)[C@H](CC(C)C)NC(=O)[C@H](Cc1cnc[nH]1)NC(=O)[C@H](CCCN=C(N)N)NC(=O)CNC(=O)[C@@H](NC(=O)[C@H](CCCCN)NC(=O)[C@@H](N)CO)C(C)C)C(=O)O` [SKVGRHLRRFGHRAHRKL], the MIC in [24] is no less than 100 µM; in assay [25], no less than 100 µM; in assay [26], no less than 100 µM; in assay [27], 9.38 µM (≈ 20.7 µg/mL); in assay [28], no less than 100 µM; in assay [29], 12.5 µM (≈ 27.6 µg/mL). Further, the MIC in assay [30] was no less than 100 µM; in assay [31] it was no less than 100 µM; in assay [32], 18.8 µM (≈ 41.5 µg/mL); in assay [33], 18.8 µM (≈ 41.5 µg/mL); in [34] it was no less than 100 µM; in assay [35], 18.8 µM (≈ 41.5 µg/mL).

For `CC(C)C[C@H](NC(=O)[C@H](CCCCN)NC(=O)[C@H](CCCN=C(N)N)NC(=O)[C@H](Cc1cnc[nH]1)NC(=O)[C@H](C)NC(=O)[C@H](CCCN=C(N)N)NC(=O)[C@H](Cc1cnc[nH]1)NC(=O)[C@H](CC(C)C)NC(=O)[C@H](Cc1ccccc1)NC(=O)[C@H](CCCN=C(N)N)NC(=O)[C@H](CCCN=C(N)N)NC(=O)[C@H](CC(C)C)NC(=O)[C@H](Cc1cnc[nH]1)NC(=O)[C@H](CCCN=C(N)N)NC(=O)CNC(=O)[C@@H](NC(=O)[C@H](CCCCN)NC(=O)[C@@H](N)CO)C(C)C)C(=O)O` [SKVGRHLRRFLHRAHRKL], the MIC in assay [24] is no less than 100 µM; in assay [25], no less than 100 µM; in assay [26], no less than 100 µM; in assay [27], 2.34 µM (≈ 5.31 µg/mL); in assay [28], no less than 100 µM; in assay [29], 2.34 µM (≈ 5.31 µg/mL). Besides, the MIC in assay [30] was no less than 100 µM; in [31], no less than 100 µM; in assay [32], 4.69 µM (≈ 10.6 µg/mL); in assay [33] it was 3.13 µM (≈ 7.1 µg/mL); in assay [34], no less than 100 µM; in assay [35], 4.69 µM (≈ 10.6 µg/mL).
